# Reference: the supplement of paper PMC10307832
# Legend:
# Assay in all cases: relative viability (nuclei count vs DMSO), 5 days (fraction); higher = more cells survive
# Carboplatin + Olaparib = compound: C1CC(C1)(C(=O)O)C(=O)O.[NH2-].[NH2-].[Pt+2] [Carboplatin] + O=C(c1cc(Cc2n[nH]c(=O)c3ccccc23)ccc1F)N1CCN(C(=O)C2CC2)CC1 [Olaparib] (partner 8 µM)
# In short: (§1)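 Each reported value is a median over duplicate plates. It expresses relative viability: treated-well nuclei count divided by vehicle-well nuclei count. Lung cancer cell lines in 1536-well plates were dosed by pin tool a day after seeding, alone with one drug or with a fixed anchor-drug dose plus five library-drug doses (not always all listed) in √10 steps, and nuclei were counted after 5 days.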
# GSK126 + Pictilisib = compound: CC[C@H](C)N1C=C(C2=C(C=C(C=C21)C3=CN=C(C=C3)N4CCNCC4)C(=O)NCC5=C(C=C(NC5=O)C)C)C [GSK126] + CS(=O)(=O)N1CCN(Cc2cc3nc(-c4cccc5[nH]ncc45)nc(N4CCOCC4)c3s2)CC1 [Pictilisib] (partner 1 µM)
# In short: as §1
# GSK126 + Dasatinib = compound: CC[C@H](C)N1C=C(C2=C(C=C(C=C21)C3=CN=C(C=C3)N4CCNCC4)C(=O)NCC5=C(C=C(NC5=O)C)C)C [GSK126] + Cc1nc(Nc2ncc(C(=O)Nc3c(C)cccc3Cl)s2)cc(N2CCN(CCO)CC2)n1 [Dasatinib] (partner 0.075 µM)
# In short: as §1
# GSK126 + AZD7762 = compound: CC[C@H](C)N1C=C(C2=C(C=C(C=C21)C3=CN=C(C=C3)N4CCNCC4)C(=O)NCC5=C(C=C(NC5=O)C)C)C [GSK126] + NC(=O)Nc1cc(-c2cccc(F)c2)sc1C(=O)N[C@H]1CCCNC1 [AZD7762] (partner 0.2 µM)
# In short: as §1
Cell Line,relative viability (Carboplatin + Olaparib; first compound 0.08 µM),relative viability (Carboplatin + Olaparib; first compound 0.253 µM),relative viability (Carboplatin + Olaparib; first compound 0.8 µM),relative viability (Carboplatin + Olaparib; first compound 2.53 µM),relative viability (Carboplatin + Olaparib; first compound 8 µM),relative viability (GSK126 + Pictilisib; first compound 0.08 µM),relative viability (GSK126 + Pictilisib; first compound 0.253 µM),relative viability (GSK126 + Pictilisib; first compound 0.8 µM),relative viability (GSK126 + Pictilisib; first compound 2.53 µM),relative viability (GSK126 + Pictilisib; first compound 8 µM),relative viability (GSK126 + Dasatinib; first compound 0.08 µM),relative viability (GSK126 + Dasatinib; first compound 0.253 µM),relative viability (GSK126 + Dasatinib; first compound 0.8 µM),relative viability (GSK126 + Dasatinib; first compound 2.53 µM),relative viability (GSK126 + Dasatinib; first compound 8 µM),relative viability (GSK126 + AZD7762; first compound 0.08 µM),relative viability (GSK126 + AZD7762; first compound 0.253 µM),relative viability (GSK126 + AZD7762; first compound 0.8 µM),relative viability (GSK126 + AZD7762; first compound 2.53 µM),relative viability (GSK126 + AZD7762; first compound 8 µM)
NCI-H2126,0.936,0.959,0.903,0.915,0.763,0.497,0.531,0.523,0.496,0.502,0.656,0.661,0.644,0.671,0.494,1.13,0.988,0.974,0.945,1.06
NCI-H2170,0.621,0.668,0.555,0.567,0.37,0.333,0.281,0.35,0.322,0.346,0.544,0.533,0.574,0.612,0.686,0.951,0.966,0.823,0.86,0.815
NCI-H2347,0.55,0.568,0.57,0.546,0.498,0.602,0.661,0.567,0.511,0.616,0.257,0.331,0.347,0.305,0.304,0.757,0.707,0.711,0.723,0.783
NCI-H2405,0.965,0.926,0.841,0.821,0.66,0.427,0.385,0.437,0.452,0.397,0.203,0.207,0.188,0.19,0.189,0.794,0.603,0.695,0.715,0.611
NCI-H3122,0.644,0.584,0.562,0.559,0.622,0.61,0.597,0.595,0.684,0.703,0.969,0.728,0.819,0.748,1.2,0.968,1.01,0.956,1.03,1.01
PC-3 [JPC-3],1.23,1.14,1.12,1.04,0.835,0.808,0.795,0.814,0.781,0.762,1.12,0.997,0.997,1.02,0.978,0.855,0.855,0.957,0.871,0.766
PC-14,0.266,0.266,0.171,0.118,0.0838,0.684,0.667,0.59,0.693,0.656,0.261,0.236,0.231,0.255,0.222,0.335,0.314,0.35,0.417,0.312
RERF-LC-KJ,1.03,0.866,0.884,0.657,0.416,0.551,0.554,0.589,0.529,0.55,0.883,0.886,0.756,0.717,0.703,,1.09,0.959,1.1,1.03
